The numbers were not newly measured in US20250334554A1, “ANALYTICAL METHOD FOR QUANTIFYING SUCRALOSE-6-ACETATE CONTENT” (Avazyme, Inc., priority 2024, published 2025), which cites them from elsewhere.

The conditions of data set [1]: Schiffman et al. 2023.
In data set [2] the test system is humans. As to conditions: 2023, Riboli et al.

The structures appear in SMILES notation. Peptide text beside a SMILES is read from it.

For `CC(=O)OC[C@H]1O[C@H](O[C@]2(CCl)O[C@H](CCl)[C@@H](O)[C@@H]2O)[C@H](O)[C@@H](O)[C@H]1Cl` [sucralose-6-acetate], the “consumption level at which may be genotoxic” value in data set [1] was 0.15 µg/day. As for `COC(=O)[C@H](Cc1ccccc1)NC(=O)[C@@H](N)CC(=O)O` [aspartame] (H-Asp-Phe-OMe), in data set [2], the IARC carcinogenicity classification entry is “possibly carcinogenic to humans (Group 2B)”.
